In patent US9968637B2, “Dopaminergic neurons differentiated from pluripotent stem cells and uses thereof” (THE MCLEAN HOSPITAL CORPORATION, priority 2010, dated 2018):

Experiments:
[1] = system: human ES cell-derived neural progenitor cells; experiment: Quantitative PCR transcriptional profile after differentiation with retinoic acid
[2] = system: human ES cell-derived FOXA2 expressing neural progenitor cells; experiment: Immunocytochemistry and cell counts of FOXA2 expressing DA neurons at DIV49; assay type: cell-based
Experimental: Media were changed every 2 days.
Neural progenitor cells were differentiated toward the DA neuron phenotype with mouse sonic hedgehog (Shh-N), human activated sonic hedgehog (C24II SHH-N), mouse fibroblast growth factor 8b (FGF8b), human FGF8A (all from R&D Systems, Inc.), 20 ng/ml brain derived neurotrophic factor (BDNF) (PeproTech EC Ltd), 1 ng/ml transforming growth factor type β3 (TGF-β3) (Calbiochem, San Diego, Calif.), 10 ng/ml glial cell line-derived neurotrophic factor (GDNF), 0.5 mM dibutyryl cAMP, and 0.2 mM ascorbic acid (AA) (all from Sigma-Aldrich). After 21 days (Day 35) cells were passaged using Tryple (Invitrogen Corporation) and spun at 1,000 rpm for 5 minutes. Cells were resuspended in N2 medium and plated again at a density of approximately 1,000,000-2,000,000 cells per well (24 well plate) on polyornithine/laminin-coated dishes in the presence of BDNF, AA, SHH, and FGF8. After an additional 7 days of culture (DIV42), cells were differentiated until Day 49 without SHH and FGF8 but in the presence of BDNF, AA, cAMP, GDNF, and TGF-β3.
Cells were fixed in 4% paraformaldehyde and analyzed by indirect immunofluorescence (Sonntag et al., 2005). Fluorescent signals were examined using an LSM510 Meta confocal microscope equipped with ultraviolet, argon, and helium-neon lasers (Carl Zeiss, Thornwood, N.Y.). […]
Quantitative analysis of immunocytochemistry was performed on randomly selected confocal fields from at least two independent differentiation experiments. In each field, images of separate channels (Hoechst, 488, 568, 594) were acquired at 40× magnification on an integrated confocal microscope (LSM510/Meta, Carl Zeiss) and stereology workstation (StereoInvestigator, MBF Bioscience, Inc., Williston, Vt.), where images of cells in independent channels and merged images were counted.

CC1=C(/C=C/C(C)=C/C=C/C(C)=C/C(=O)O)C(C)(C)CCC1 [RA, all-trans retinoic acid]
OTX2, PAX2 and HOXB1 levels ([1]; 10^-6 M and 10^-7 M RA, 22 days of differentiation, relative to conditions without RA): reduced OTX2 and PAX2 levels and increased HOXB1 levels
increase of expression levels of the midbrain transcription factor EN1 ([1]; 10^-8 M RA, 22 days of differentiation, relative to conditions without RA): more than 2000 fold
expression levels of the ventral neural transcription factor FOXA2 ([1]; all RA conditions tested (0, 10^-6 to 10^-9 M)): consistently low

B1: WNT1: secreted signaling protein encoded by the human WNT1 proto-oncogene; recombinant (protein, UniProt P04628 28-370, looked up)
Proto-oncogene Wnt-1: ANSSGRWWGIVNVASSTNLLTDSKSLQLVLEPSLQLLSRKQRRLIRQNPGILHSVSGGLQSAVRECKWQFRNRRWNCPTAPGPHLFGKIVNRGCRETAFIFAITSAGVTHSVARSCSEGSIESCTCDYRRRGPGGPDWHWGGCSDNIDFGRLFGREFVDSGEKGRDLRFLMNLHNNEAGRTTVFSEMRQECKCHGMSGSCTVRTCWMRLPTLRAVGDVLRDRFDGASRVLYGNRGSNRASRAELLRLEPEDPAHKPPSPHDLVYFEKSPNFCTYSGRLGTAGTAGRACNSSSPALDGCELLCCGRGHRTRTQRVTERCNCTFHWCCHVSCRNCTHTRVLHECL
cells coexpressing FOXA2, TH and β-tubulin ([2]; DIV49, cultures grown without WNT1 during first 14 days): did not contain cells that coexpressed FOXA2, TH, and β-tubulin

B2: Noggin: recombinant Noggin protein (R&D Systems) (protein, UniProt Q13253 28-232, looked up)
Noggin: QHYLHIRPAPSDNLPLVDLIEHPDPIFDPKEKDLNETLLRSLLGGHYDPGFMATSPPEDRPGGGGGAAGGAEDLAELDQLLRQRPSGAMPSEIKGLEFSEGLAQGKKQRLSKKLRRKLQMWLWSQTFCPVLYAWNDLGSRFWPRYVKVGSCFSKRSCSVPEGMVCKPSKSVHLTVLRWRCQRRGGQRCGWIPIQYPIISECKCSC
cells coexpressing FOXA2, TH and β-tubulin ([2]; DIV49, cultures grown with Noggin alone during first 14 days): did not contain cells that coexpressed FOXA2, TH, and β-tubulin
cells coexpressing FOXA2, TH and β-tubulin ([2]; DIV49, cultures grown with or without Noggin during first 14 days (with WNT1)): contained cells that coexpressed FOXA2, TH and β-tubulin
